Some test systems named below: OVCAR-4; U-251; EKVX; NCI-H460; LOX IMVI; HOP-92; IGROV-1; OVCAR-3; ACHN; T47D; 786-0; NCI-H226; HCT-15; UACC-257; SK-MEL-2; PC-3; A549; COLO 205; CCRF-CEM.
Common to all, as to assay: inhibition of tumour cell growth, NCI panel, 48 h

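Test compounds were applied to cells in 96-well plates for 48 hours at 5 doses. Abbreviation: GI50, concentration required for 50% inhibition of growth.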 The source made the active and inactive calls. Rule as the data show it: active = GI50 up to about 1.1 µM and inactive = higher. Some results are limits rather than exact numbers.

For the compound `N/C(=N\c1ccc(Cl)cc1)NS(=O)(=O)c1ccc(-c2ncccc2C(F)(F)F)s1`, the GI50 with OVCAR-4 is 18.5 µM (inactive); in the assay on U-251, 13.1 µM (inactive); in the assay with EKVX, 4.61 µM (inactive); in the assay with NCI-H460, 13.1 µM (inactive); with LOX IMVI, 14 µM (inactive); in the assay with HOP-92, 14.7 µM (inactive). Also, the GI50 with IGROV-1 was 12 µM (inactive); in the assay on OVCAR-3, 17.6 µM (inactive); in the assay with ACHN, 16 µM (inactive); in the assay with T47D it was 12.3 µM (inactive); in the assay on 786-0, 17.1 µM (inactive); in the assay with NCI-H226 it was 17.2 µM (inactive). Also, the GI50 with HCT-15 is 16.6 µM; in the assay on UACC-257 it was 3.17 µM (inactive); in the assay on SK-MEL-2, 15.8 µM (inactive); in the assay on PC-3, 13.1 µM (inactive); in the assay with A549 it was 15.2 µM (inactive); in the assay on COLO 205, 42 µM (inactive).

For `CCOc1cc(CC[N+](C)(C)C)c2c(ccc3ccc(OC)c(OC)c32)c1OC`, the GI50 was > 10 µM (inactive) with OVCAR-4; > 100 µM (inactive) in the assay with U-251; > 100 µM (inactive) in the assay with EKVX; > 100 µM (inactive) in the assay on HOP-92; > 100 µM (inactive) in the assay with IGROV-1; 53.3 µM (inactive) in the assay on OVCAR-3. Besides, the GI50 in the assay on ACHN, in the assay with T47D, in the assay on 786-0, in the assay on PC-3, in the assay with A549 and in the assay on COLO 205 was > 100 µM (inactive) throughout.

Consider `S=C1Cc2c([nH]c3ccccc23)-c2ccccc2N1`, for which the GI50 with OVCAR-4 is > 100 µM (inactive); in the assay on EKVX it was 40.4 µM (inactive); with NCI-H460 it was 35.4 µM (inactive); in the assay on LOX IMVI, 75.2 µM (inactive); in the assay on HOP-92, 32.3 µM (inactive); in the assay on IGROV-1 it was 65.3 µM (inactive). In addition, the GI50 in the assay on OVCAR-3 is 32.6 µM (inactive); in the assay with ACHN, 23.6 µM (inactive); in the assay on T47D it was > 100 µM (inactive); with 786-0, 31.3 µM (inactive); in the assay on NCI-H226, 29.5 µM (inactive); with UACC-257, 55 µM (inactive). Besides, the GI50 in the assay on CCRF-CEM was > 100 µM (inactive); in the assay on PC-3, 21.5 µM (inactive); with A549 it was 23 µM (inactive); in the assay on COLO 205 it was > 100 µM (inactive).

In the case of `CCOC(=O)NC(Nc1ccc(F)cc1F)(C(F)(F)F)C(F)(F)F`, the GI50 in the assay on U-251, in the assay on EKVX, in the assay with NCI-H460, in the assay on LOX IMVI, in the assay with HOP-92 and in the assay with IGROV-1 was > 100 µM (inactive) each time. The GI50 in the assay with OVCAR-3 was > 100 µM (inactive); with ACHN, > 100 µM (inactive); in the assay with T47D, > 100 µM (inactive); in the assay with 786-0 it was > 100 µM (inactive); in the assay on NCI-H226, > 100 µM (inactive); in the assay on HCT-15, above 100 µM. Besides, the GI50 in the assay on UACC-257, with SK-MEL-2, in the assay with CCRF-CEM, in the assay with PC-3, with A549 and in the assay with COLO 205 was > 100 µM (inactive) throughout.

For the compound `COc1cc([C@@H]2C3C(=O)c4ccccc4C3[C@@H](c3cc(OC)c(OC)c(OC)c3)C23Cc2ccccc2C3=O)cc(OC)c1OC` (some centres not stated), the GI50 in the assay on OVCAR-4 is > 100 µM (inactive); in the assay with U-251, > 100 µM (inactive); in the assay on EKVX, > 100 µM (inactive); with NCI-H460, > 100 µM (inactive); in the assay on LOX IMVI it was > 100 µM (inactive); with HOP-92, 1.87 µM (inactive). In addition, the GI50 with IGROV-1 was 24.3 µM (inactive); in the assay on OVCAR-3, > 100 µM (inactive); in the assay with ACHN, > 100 µM (inactive); with T47D, > 100 µM (inactive); in the assay on 786-0 it was > 100 µM (inactive); in the assay on NCI-H226, > 100 µM (inactive). For the same compound, the GI50 in the assay with HCT-15 was above 100 µM; with UACC-257 it was > 100 µM (inactive); in the assay with CCRF-CEM it was > 100 µM (inactive); with PC-3 it was > 100 µM (inactive); in the assay with A549, > 100 µM (inactive); with COLO 205 it was > 100 µM (inactive).

The values above are taken from ChEMBL document CHEMBL1201862, “PubChem BioAssay data set” (2004).
